Source: ChEMBL document CHEMBL1201862, “PubChem BioAssay data set” (2004)
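Values below derive from 48-hour exposures of cells grown in 96-well plates, with endpoints linearly interpolated between the two concentrations bracketing the appropriate inhibition level. At the GI50, growth is halved.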 Calls of active or inactive are those of the source. No stated cut-off is given here; in the data, active = GI50 up to about 1.1 µM and inactive = higher.

Columns and labels:
Assay in all cases: inhibition of tumour cell growth, NCI panel, 48 h
[1] = tested on: RPMI-8226
[2] = tested on: A498
[3] = tested on: RXF 393
[4] = tested on: OVCAR-4
[5] = tested on: SNB-75
[6] = tested on: Hs-578T
[7] = tested on: HCT-15
[8] = tested on: LOX IMVI
[9] = tested on: MOLT-4
[10] = tested on: UACC-257
[11] = tested on: MDA-MB-435
[12] = tested on: NCI-H460
[13] = tested on: M14
[14] = tested on: NCI-H522
[15] = tested on: HOP-62
[16] = tested on: TK-10
[17] = tested on: SF-295
[18] = tested on: U-251
[19] = tested on: EKVX
[20] = tested on: SK-MEL-28
[21] = tested on: UACC-62
[22] = tested on: 786-0
[23] = tested on: SNB-19
[24] = tested on: IGROV-1
[25] = tested on: OVCAR-8
[26] = tested on: UO-31
[27] = tested on: SN12C
[28] = tested on: OVCAR-3
[29] = tested on: SK-MEL-5
[30] = tested on: SW-620
[31] = tested on: MCF7
[32] = tested on: COLO 205
[33] = tested on: SF-539
[34] = tested on: BT-549
[35] = tested on: NCI-H226
[36] = tested on: ACHN
[37] = tested on: KM12
[38] = tested on: MDA-MB-231
[39] = tested on: HOP-92
[40] = tested on: NCI-H23
[41] = tested on: HT-29
[42] = tested on: T47D
[43] = tested on: SF-268
[44] = tested on: PC-3
[45] = tested on: HCT-116
[46] = tested on: A549
[47] = tested on: MDA-N
[48] = tested on: SK-MEL-2
[49] = tested on: NCI/ADR-RES
[50] = tested on: SK-OV-3
[51] = tested on: CAKI-1
[52] = tested on: OVCAR-5
[53] = tested on: DU-145
[54] = tested on: SR
[55] = tested on: HL-60
[56] = tested on: K562
[57] = tested on: Malme-3M
[58] = tested on: CCRF-CEM
[59] = tested on: HCC 2998

## Cn1cc(C=C(C#N)C#N)c(=O)n(C)c1=O
[1]
  GI50: 52 µM (inactive)
[2]
  GI50: > 100 µM (inactive)
[3]
  GI50: > 100 µM (inactive)
[4]
  GI50: > 100 µM (inactive)
[5]
  GI50: > 100 µM (inactive)
[6]
  GI50: > 100 µM (inactive)
[7]
  GI50: > 100 µM
[8]
  GI50: > 100 µM (inactive)
[9]
  GI50: 0.809 µM (active)
[10]
  GI50: > 100 µM (inactive)
[11]
  GI50: > 100 µM (inactive)
[12]
  GI50: > 100 µM (inactive)
[13]
  GI50: > 100 µM (inactive)
[14]
  GI50: 37.6 µM (inactive)
[15]
  GI50: > 100 µM (inactive)
[16]
  GI50: > 100 µM (inactive)
[17]
  GI50: > 100 µM (inactive)
[18]
  GI50: > 100 µM (inactive)
[19]
  GI50: > 100 µM (inactive)
[20]
  GI50: > 100 µM (inactive)
[21]
  GI50: > 100 µM (inactive)
[22]
  GI50: > 100 µM (inactive)
[23]
  GI50: > 100 µM (inactive)
[24]
  GI50: > 100 µM (inactive)
[25]
  GI50: > 100 µM (inactive)
[26]
  GI50: > 100 µM (inactive)
[27]
  GI50: > 100 µM (inactive)
[28]
  GI50: > 100 µM (inactive)
[29]
  GI50: > 100 µM (inactive)
[30]
  GI50: 56.1 µM (inactive)
[31]
  GI50: > 100 µM (inactive)
[32]
  GI50: > 100 µM (inactive)
[33]
  GI50: > 100 µM (inactive)
[34]
  GI50: > 100 µM (inactive)
[35]
  GI50: > 100 µM (inactive)
[36]
  GI50: > 100 µM (inactive)
[37]
  GI50: > 100 µM (inactive)
[38]
  GI50: > 100 µM (inactive)
[39]
  GI50: > 100 µM (inactive)
[40]
  GI50: > 100 µM (inactive)
[41]
  GI50: > 100 µM (inactive)
[42]
  GI50: > 100 µM (inactive)
[43]
  GI50: > 100 µM (inactive)
[44]
  GI50: > 100 µM (inactive)
[45]
  GI50: > 100 µM (inactive)
[46]
  GI50: > 100 µM (inactive)
[47]
  GI50: > 100 µM (inactive)
[48]
  GI50: > 100 µM (inactive)
[49]
  GI50: > 100 µM (inactive)
[50]
  GI50: > 100 µM (inactive)
[51]
  GI50: > 100 µM (inactive)
[52]
  GI50: > 100 µM (inactive)
[53]
  GI50: > 100 µM (inactive)

## CCSC12CC3c4cccc5c4C(CN5C(=O)c4ccccc4)CC3(O1)N(C)C2=O (centres undefined)
[2]
  GI50: 32.1 µM (inactive)
[3]
  GI50: 71.1 µM (inactive)
[4]
  GI50: 36.9 µM (inactive)
[5]
  GI50: 73.6 µM (inactive)
[6]
  GI50: 46.3 µM (inactive)
[7]
  GI50: 29.4 µM
[8]
  GI50: 31.3 µM (inactive)
[9]
  GI50: 22.2 µM (inactive)
[54]
  GI50: 28.7 µM (inactive)
[10]
  GI50: 29.4 µM (inactive)
[11]
  GI50: 34.8 µM (inactive)
[12]
  GI50: 37.8 µM (inactive)
[13]
  GI50: 46.7 µM (inactive)
[14]
  GI50: 25.1 µM (inactive)
[16]
  GI50: 48.5 µM (inactive)
[17]
  GI50: 45.6 µM (inactive)
[18]
  GI50: 38.5 µM (inactive)
[19]
  GI50: 24.2 µM (inactive)
[20]
  GI50: 48.4 µM (inactive)
[21]
  GI50: 22.5 µM (inactive)
[22]
  GI50: 36.2 µM (inactive)
[23]
  GI50: 87.3 µM (inactive)
[24]
  GI50: 31.3 µM (inactive)
[25]
  GI50: 31.5 µM (inactive)
[26]
  GI50: 47.3 µM (inactive)
[27]
  GI50: 17.2 µM (inactive)
[28]
  GI50: 40.8 µM (inactive)
[29]
  GI50: 14.7 µM (inactive)
[30]
  GI50: 75.5 µM (inactive)
[32]
  GI50: 26.1 µM (inactive)
[33]
  GI50: 26.9 µM (inactive)
[55]
  GI50: 22.7 µM (inactive)
[34]
  GI50: 26.1 µM (inactive)
[35]
  GI50: 39.6 µM (inactive)
[36]
  GI50: 33.6 µM (inactive)
[37]
  GI50: 45.4 µM (inactive)
[56]
  GI50: 33.3 µM (inactive)
[38]
  GI50: 27.9 µM (inactive)
[39]
  GI50: 24.1 µM (inactive)
[40]
  GI50: 24.7 µM (inactive)
[41]
  GI50: 42.6 µM (inactive)
[42]
  GI50: 17.7 µM (inactive)
[43]
  GI50: 42.7 µM (inactive)
[44]
  GI50: 22.9 µM (inactive)
[45]
  GI50: 30.1 µM (inactive)
[46]
  GI50: 38.9 µM (inactive)
[47]
  GI50: 25.3 µM (inactive)
[48]
  GI50: 40.3 µM (inactive)
[57]
  GI50: 35.6 µM (inactive)
[49]
  GI50: 29 µM (inactive)
[50]
  GI50: > 100 µM (inactive)
[51]
  GI50: 92 µM (inactive)
[52]
  GI50: 83 µM (inactive)
[58]
  GI50: 28.6 µM (inactive)
[53]
  GI50: 51.8 µM (inactive)

## COc1cc(/C=C2\C(=O)N(c3ccccc3)C(c3ccccc3)S2(=O)=O)cc(OC)c1OC (centres undefined)
[1]
  GI50: 17.2 µM (inactive)
[59]
  GI50: 64.6 µM (inactive)
[2]
  GI50: > 100 µM (inactive)
[3]
  GI50: 17.1 µM (inactive)
[4]
  GI50: 27.5 µM (inactive)
[6]
  GI50: 70.3 µM (inactive)
[7]
  GI50: 37.9 µM
[8]
  GI50: 31.4 µM (inactive)
[9]
  GI50: 34 µM (inactive)
[54]
  GI50: 24.5 µM (inactive)
[10]
  GI50: 32.1 µM (inactive)
[11]
  GI50: 27 µM (inactive)
[12]
  GI50: 54 µM (inactive)
[13]
  GI50: 35.2 µM (inactive)
[14]
  GI50: 29.7 µM (inactive)
[15]
  GI50: 70.6 µM (inactive)
[16]
  GI50: 65 µM (inactive)
[17]
  GI50: > 100 µM (inactive)
[18]
  GI50: 28.6 µM (inactive)
[19]
  GI50: 24.2 µM (inactive)
[20]
  GI50: 51.6 µM (inactive)
[21]
  GI50: 30.1 µM (inactive)
[22]
  GI50: 69.5 µM (inactive)
[23]
  GI50: 31 µM (inactive)
[25]
  GI50: 21.3 µM (inactive)
[26]
  GI50: 22.9 µM (inactive)
[27]
  GI50: 39.4 µM (inactive)
[28]
  GI50: 36 µM (inactive)
[29]
  GI50: 17.6 µM (inactive)
[30]
  GI50: 51.3 µM (inactive)
[31]
  GI50: 31.2 µM (inactive)
[32]
  GI50: 23.3 µM (inactive)
[33]
  GI50: 45.1 µM (inactive)
[55]
  GI50: 7.36 µM (inactive)
[34]
  GI50: 35.6 µM (inactive)
[35]
  GI50: 46.8 µM (inactive)
[36]
  GI50: > 100 µM (inactive)
[37]
  GI50: 38.4 µM (inactive)
[56]
  GI50: 27 µM (inactive)
[38]
  GI50: 97.5 µM (inactive)
[39]
  GI50: 33 µM (inactive)
[40]
  GI50: 39.1 µM (inactive)
[41]
  GI50: 19.5 µM (inactive)
[42]
  GI50: 36.1 µM (inactive)
[43]
  GI50: > 100 µM (inactive)
[45]
  GI50: 21.1 µM (inactive)
[46]
  GI50: 43.8 µM (inactive)
[47]
  GI50: 16.4 µM (inactive)
[48]
  GI50: 42.6 µM (inactive)
[57]
  GI50: 53.1 µM (inactive)
[49]
  GI50: 28.4 µM (inactive)
[50]
  GI50: 62.7 µM (inactive)
[51]
  GI50: 88.7 µM (inactive)
[52]
  GI50: > 100 µM (inactive)
[58]
  GI50: 10.6 µM (inactive)
[53]
  GI50: 37.9 µM (inactive)
